Measured values taken from the NIST ThermoML archive (doi:10.1016/j.jct.2018.12.008).

Test: mn = molality of the nth substance listed, in mol/kg
Conditions: 100 kPa, Liquid; for viscosity: Falling or rolling sphere viscometry; for electrical conductivity: Frequency=0.003 MHz, Alternating current cell with electrodes; for mass density: Vibrating tube method

CCCC[n+]1ccc(C)cc1.[Br-] [1-butyl-4-methylpyridinium bromide] + O
Conditions | electrical conductivity, 288.15 K [S/m] | electrical conductivity, 298.15 K [S/m] | electrical conductivity, 308.15 K [S/m] | mass density, 288.15 K [kg/m3] | mass density, 298.15 K [kg/m3] | mass density, 308.15 K [kg/m3] | viscosity, 288.15 K [mPa·s] | viscosity, 298.15 K [mPa·s] | viscosity, 308.15 K [mPa·s]
m1 = 0.0011 | – | – | – | 999.126 | 997.066 | 994.057 | 1.135 | 0.8895 | 0.7239
m1 = 0.0018 | – | – | – | 999.138 | 997.081 | 994.066 | 1.137 | 0.8911 | 0.7267
m1 = 0.0021 | 0.0186 | 0.023 | 0.0278 | 999.139 | 997.093 | 994.069 | 1.137 | 0.891 | 0.727
m1 = 0.0036 | – | – | – | 999.163 | 997.131 | 994.087 | 1.14 | 0.894 | 0.7317
m1 = 0.0043 | 0.0358 | 0.0444 | 0.054 | 999.177 | 997.148 | 994.099 | 1.141 | 0.895 | 0.734
m1 = 0.0065 | 0.0536 | 0.0671 | 0.0809 | 999.217 | 997.205 | 994.13 | 1.146 | 0.9 | 0.742

CCCCCC[n+]1ccc(C)cc1.[Br-] [1-hexyl-4-methylpyridinium bromide] + O
Conditions | electrical conductivity, 288.15 K [S/m] | electrical conductivity, 298.15 K [S/m] | electrical conductivity, 308.15 K [S/m] | mass density, 288.15 K [kg/m3] | mass density, 298.15 K [kg/m3] | mass density, 308.15 K [kg/m3] | viscosity, 288.15 K [mPa·s] | viscosity, 298.15 K [mPa·s] | viscosity, 308.15 K [mPa·s]
m1 = 0.0011 | – | – | – | 999.106 | 997.049 | 994.045 | 1.134 | 0.8886 | 0.721
m1 = 0.0018 | – | – | – | 999.113 | 997.053 | 994.051 | 1.135 | 0.8893 | 0.7216
m1 = 0.0021 | 0.0177 | 0.022 | 0.0266 | 999.119 | 997.057 | 994.054 | 1.135 | 0.889 | 0.722
m1 = 0.0036 | – | – | – | 999.129 | 997.069 | 994.067 | 1.136 | 0.8907 | 0.7231
m1 = 0.0043 | 0.0345 | 0.0431 | 0.0522 | 999.138 | 997.073 | 994.072 | 1.136 | 0.891 | 0.724
m1 = 0.0065 | 0.0512 | 0.0635 | 0.077 | 999.156 | 997.088 | 994.09 | 1.138 | 0.893 | 0.725
